Results: patent US20130089504A1, “Compositions Comprising Enzyme-Cleavable Hydromorphone Prodrug” (priority 2010, published 2013)

Tests used:
trypsin = molecular target: T1, trypsin (Bos taurus, UniProt P00760); experiment: In vitro trypsin conversion of prodrug Compound PC-5 to hydromorphone; assay type: biochemical; settings: no trypsin inhibitor
T1 construct: gene PRSS1
T1 sequence (P00760 24-246): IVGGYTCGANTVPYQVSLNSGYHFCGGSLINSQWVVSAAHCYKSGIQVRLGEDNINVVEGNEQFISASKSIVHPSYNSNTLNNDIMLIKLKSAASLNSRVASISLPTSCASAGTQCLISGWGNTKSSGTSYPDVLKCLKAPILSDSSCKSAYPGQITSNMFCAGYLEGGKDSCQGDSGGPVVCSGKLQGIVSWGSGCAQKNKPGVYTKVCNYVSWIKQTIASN
Protocol: Compound PC-5 was exposed to trypsin as described. […] A 5-minute 37° C. pre-incubation of the reaction mixture without prodrug was conducted and then the prodrug was added to initiate the incubation. The reaction was conducted at 37° C. for 24 hr.

[1] = Pharmacokinetics of hydromorphone prodrug following IV administration to rats; assay type: in vivo; settings: male, Sprague Dawley; rat IV, PC-5 2 mg/kg (0.29 μmol/kg); plasma; read-out: PC-5 Cmax ± sd
[2] = In vivo tolerability of Compound PC-5 in rats (IV); settings: rat IV
Protocol: Male naïve Sprague-Dawley rats, 4 per dose, were used in the study. Rats were weighed, and then placed under a heat lamp for 15-20 minutes to dilate the lateral tail veins. Before dosing, rats were placed in Broome restrainers and the drug was introduced into one of the tail veins using a syringe and needle. […] Blood samples were collected 5 minutes post-dose via the saphenous vein. The rats were observed up to 24 hours.

[3] = In vitro stability of Compound PC-5 to household chemicals and enzyme preparations; assay type: physicochemical; settings: vodka, baking soda, WINDEX, vinegar at RT or 80° C.; GNC Super Digestive, tenderizer, subtilisn at RT; 1 or 24 hr
Protocol: Samples were incubated as described. Aliquots were removed at 1 hr and 24 hr and stabilized by transferring each to a solution of 50% or 100% phosphoric acid to achieve a final pH of less than or equal to pH 4. The stabilized aliquots were then diluted 4- to 6-fold with water, vortex-mixed and applied to HPLC.
The percentage of Compound PC-5 remaining after exposure is indicated by the solid black bars and percentage conversion of Compound PC-5 to hydromorphone is indicated by the lightly shaded bars with a black outline.

CCN(CCNC(=O)[C@H](CCCCN)NC(=O)CC(=O)O)C(=O)Oc1ccc2c3c1O[C@H]1C(=O)CCC4[C@@H](C2)N(C)CC[C@@]341 (stereo partly drawn) [Compound PC-5, [2-((S)-2-malonylamino-6-amino-hexanoylamino)-ethyl]-ethyl-carbamic acid hydromorphone ester]
trypsin-mediated release of hydromorphone (trypsin; in vitro): trypsin can mediate release hydromorphone
Rate of HM formation, Average ± sd (trypsin; 0.761 mM prodrug, 0.02 to 0.0228 mg/ml trypsin, Tris pH 8, 37° C.): 106 ± 2 umols/h/umol trypsin
half-life at 0.761 mM (trypsin; 0.761 mM prodrug, 0.02 to 0.0228 mg/ml trypsin, Tris pH 8, 37° C., read-out: Prodrug trypsin half-life, Average ± sd (converted)): 2.81 ± 0.23 h
Cmax [1]: 3090 ± 360 ng/mL
dose rats can tolerate [2]: 9.7 µmol/kg
Clinical observations ([2]; 33 mg/kg ([…]), observed up to 24 hours): Normal
conversion of Compound PC-5 to hydromorphone [3]: less than 10%
